Data from patent US20170037028A1 (BAYER PHARMA AKTIENGESELLSCHAFT, priority 2013, published 2017).

Target: T1, GLUT1 (Homo sapiens, UniProt P11166)
T1 sequence (P11166 1-492): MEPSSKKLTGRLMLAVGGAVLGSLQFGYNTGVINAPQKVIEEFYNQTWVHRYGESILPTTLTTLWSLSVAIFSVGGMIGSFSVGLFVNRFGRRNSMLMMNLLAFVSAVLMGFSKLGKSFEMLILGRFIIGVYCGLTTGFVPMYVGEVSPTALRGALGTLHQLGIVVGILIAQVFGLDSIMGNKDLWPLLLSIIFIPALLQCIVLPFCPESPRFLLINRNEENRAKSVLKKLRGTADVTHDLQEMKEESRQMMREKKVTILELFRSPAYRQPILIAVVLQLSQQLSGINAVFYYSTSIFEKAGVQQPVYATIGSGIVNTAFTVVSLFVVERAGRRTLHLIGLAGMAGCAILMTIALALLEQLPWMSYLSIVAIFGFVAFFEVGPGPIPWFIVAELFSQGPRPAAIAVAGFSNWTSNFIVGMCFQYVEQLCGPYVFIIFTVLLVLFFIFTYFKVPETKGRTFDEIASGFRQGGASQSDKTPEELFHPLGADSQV
Test: Indirect measurement of GLUT1 activity by quantification of intracellular ATP levels (glucose induced ATP increase)
Type: cell-based
Design: endogenous in cells; host or cells: DLD1 or CHO-K1
Conditions: read-out: IC50 regarding glucose induced ATP increase (GLUT1 inhibition)
Procedure, shortened: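 Intracellular ATP was measured by CellTiter-Glo luminescence as an indirect readout of transport: glucose-driven for GLUT1, fructose-driven for GLUT2. DLD1 or CHO-K1 cells were used alongside an oxidative phosphorylation inhibitor. Beforehand, cells were held overnight in glucose-free 1% FCS medium to deplete ATP.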

Row | SMILES | IC50 [nM]
1 | Cc1nn(Cc2ccc(C(=O)NCc3ccccc3)cc2)c(C)c1NC(=O)c1cc(C(F)(F)F)nc2ccc(Br)cc12 [Example 140, N-{1-[4-(benzylcarbamoyl)benzyl]-3,5-dimethyl-1H-pyrazol-4-yl}-6-bromo-2-(trifluoromethyl)quinoline-4-carboxamide] | 50
2 | Cc1c(NC(=O)c2cc(C(N)=O)nc3ccc(N4CCCCC4)cc23)c(C(F)(F)F)nn1Cc1ccc(C#N)cc1 [Example 345, N^4-[1-(4-cyanobenzyl)-5-methyl-3-(trifluoromethyl)-1H-pyrazol-4-yl]-6-(piperidin-1-yl)quinoline-2,4-dicarboxamide] | 7.2
3 | Cc1ccc2nc(C)cc(C(=O)Nc3c(C)nn(Cc4ccccc4F)c3C)c2c1 [Example 112, N-[1-(2-fluorobenzyl)-3,5-dimethyl-1H-pyrazol-4-yl]-2,6-dimethylquinoline-4-carboxamide] | 771
4 | Cc1c(NC(=O)c2cc(C(N)=O)nc3cc(F)c(Cl)cc23)c(C(F)(F)F)nn1Cc1ccncc1 [Example 1368] | 29.3
5 | Cc1nn(Cc2cc(C(C)C)no2)c(C)c1NC(=O)c1cc(C(N)=O)nc2cc(F)c(Cl)cc12 [Example 416, 6-chloro-N^4-(3,5-dimethyl-1-{[3-(propan-2-yl)-1,2-oxazol-5-yl]methyl}-1H-pyrazol-4-yl)-7-fluoroquinoline-2,4-dicarboxamide] | 2.7
6 | CC(C)c1nn(Cc2ccc(F)cc2)c(C(C)C)c1NC(=O)c1cc(C(F)(F)F)nc2ccc(Br)cc12 [Example 1355] | > 13000
7 | Cc1nn(Cc2ccc(F)cc2)c(C)c1NC(=O)c1cc(C(F)(F)F)nc2cccc(Br)c12 [Example 34, 5-bromo-N-[1-(4-fluorobenzyl)-3,5-dimethyl-1H-pyrazol-4-yl]-2-(trifluoromethyl)quinoline-4-carboxamide] | 25.2
8 | Cc1c(NC(=O)c2cc([S+](C)[O-])nc3ccccc23)c(C(F)(F)F)nn1Cc1ccc(C#N)cc1 (racemic) [Example 383, (±)-N-[1-(4-cyanobenzyl)-5-methyl-3-(trifluoromethyl)-1H-pyrazol-4-yl]-2-(methylsulfinyl)quinoline-4-carboxamide] | 8.3
9 | Cc1nn(Cc2ccc(C(=O)NCCCO)cc2)c(C)c1NC(=O)c1cc(C(F)(F)F)nc2ccc(Br)cc12 [Example 1051] | 11.8
10 | Cc1nn(Cc2ccc(C(=O)N[C@@H](C)CO)cc2)c(C)c1NC(=O)c1cc(C(F)(F)F)nc2ccc(Br)cc12 [Example 1101] | 42.8
11 | Cc1c(NC(=O)c2cc(C(N)=O)nc3cc(F)ccc23)c(C(F)(F)F)nn1C(C)c1ccccc1 (single isomer, unassigned) [Example 336, (S or R)-7-fluoro-N^4-[5-methyl-1-(1-phenylethyl)-3-(trifluoromethyl)-1H-pyrazol-4-yl]quinoline-2,4-dicarboxamide] | 150
12 | Cc1cccc(CNC(=O)c2ccc(Cn3nc(C)c(NC(=O)c4cc(C(F)(F)F)nc5ccc(Br)cc45)c3C)cc2)c1 [Example 1190] | 312
13 | COc1cccc(Cn2nc(C)c(NC(=O)c3cc(C(F)(F)F)nc4ccc(Br)cc34)c2C)c1 [Example 97, 6-bromo-N-[1-(3-methoxybenzyl)-3,5-dimethyl-1H-pyrazol-4-yl]-2-(trifluoromethyl)quinoline-4-carboxamide] | 354
14 | Cc1c(NC(=O)c2cc(C(N)=O)nc3cc(F)ccc23)c(C(F)(F)F)nn1C(C)c1ccccc1 (single isomer, unassigned) [Example 335, (R or S)-7-fluoro-N^4-[5-methyl-1-(1-phenylethyl)-3-(trifluoromethyl)-1H-pyrazol-4-yl]quinoline-2,4-dicarboxamide] | 1.6
15 | COc1ccc(Cn2nc(C)c(NC(=O)c3cc(C(N)=O)nc4cc(F)c(Cl)cc34)c2C)cc1 [Example 214, 6-chloro-7-fluoro-N^4-[1-(4-methoxybenzyl)-3,5-dimethyl-1H-pyrazol-4-yl]quinoline-2,4-dicarboxamide] | 1.1
16 | Cc1nn(C(C)c2ccccc2)c(C)c1NC(=O)c1cc(C(N)=O)nc2ccccc12 (racemic) [Example 1362] | 5.8
17 | Cc1cc(C(=O)Nc2c(C)nn(Cc3ccc(F)c(F)c3)c2C)c2cc(Br)ccc2n1 [Example 185, 6-bromo-N-[1-(3,4-difluorobenzyl)-3,5-dimethyl-1H-pyrazol-4-yl]-2-methylquinoline-4-carboxamide] | 122
18 | COCc1ccc(Cn2nc(C(F)(F)F)c(NC(=O)c3cc(C(N)=O)nc4cccc(F)c34)c2C)cc1 [Example 402, 5-fluoro-N^4-{1-[4-(methoxymethyl)benzyl]-5-methyl-3-(trifluoromethyl)-1H-pyrazol-4-yl}quinoline-2,4-dicarboxamide] | 6.7
19 | Cc1ccc2nc(C)cc(C(=O)Nc3c(C)nn(Cc4cccc(C#N)c4)c3C)c2c1 [Example 1283] | 6250
20 | Cc1nn(Cc2ccc(F)cc2)c(C)c1NC(=O)c1cc(N(C)C)nc2ccccc12 [Example 163, 2-(dimethylamino)-N-[1-(4-fluorobenzyl)-3,5-dimethyl-1H-pyrazol-4-yl]quinoline-4-carboxamide] | 25
21 | Cc1cc(Cn2nc(C(F)(F)F)c(NC(=O)c3cc(C(N)=O)nc4cc(F)c(Cl)cc34)c2C)no1 [Example 408, 6-chloro-7-fluoro-N^4-{5-methyl-1-[(5-methyl-1,2-oxazol-3-yl)methyl]-3-(trifluoromethyl)-1H-pyrazol-4-yl}quinoline-2,4-dicarboxamide] | 7.8

Further lines, results first:

Row | IC50 [nM] | SMILES
22 | 7110 | Cc1nn(Cc2ccc(C(=O)NCCN(C)C)cc2)c(C)c1NC(=O)c1cc(C(N)=O)nc2cc(F)ccc12 [Example 1422]
23 | 2.3 | COc1cccc(Cn2nc(C(F)(F)F)c(NC(=O)c3cc(C(N)=O)nc4ccc(Br)cc34)c2C)c1 [Example 1450]
24 | 3.7 | Cc1nn(Cc2ccc(F)cc2F)c(C)c1NC(=O)c1cc(C(N)=O)nc2ccc(Br)cc12 [Example 1490]
25 | 110 | Cc1c(NC(=O)c2cc(C(N)=O)nc3cc(F)c(Cl)cc23)c(C(F)(F)F)nn1Cc1ccccc1OC(F)(F)F [Example 1704]
26 | 1290 | Cc1c(NC(=O)c2cc(C(N)=O)nc3cc(F)c(Cl)cc23)c(C(F)(F)F)nn1Cc1nc(C(=O)O)co1 [Example 1686]
27 | 23.4 | Cc1c(NC(=O)c2cc(C(N)=O)nc3ccccc23)c(C(F)(F)F)nn1Cc1cccc(C#N)c1 [Example 1579]
28 | 3.5 | Cc1nn(Cc2ccc(C(F)(F)F)cc2)c(C)c1NC(=O)c1cc(C(N)=O)nc2cccc(F)c12 [Example 1600]
29 | 721 | Cc1c(NC(=O)c2cc(C(N)=O)nc3ccccc23)c(C(F)(F)F)nn1Cc1nc(C(=O)O)co1 [Example 1684]
30 | 30.6 | Cc1nn(Cc2ncccc2C#N)c(C)c1NC(=O)c1cc(C(N)=O)nc2cccc(F)c12 [Example 1410]
31 | 3.8 | COc1cc(Cn2nc(C(F)(F)F)c(NC(=O)c3cc(C(N)=O)nc4cccc(F)c34)c2C)ccc1C#N [Example 1665]
32 | 49.3 | CNS(=O)(=O)c1cc(C(=O)Nc2c(C(F)(F)F)nn(Cc3ccc(C#N)cc3)c2C)c2ccccc2n1 [Example 1574]
33 | 9.8 | COc1cccc(Cn2nc(C)c(NC(=O)c3cc(C(N)=O)nc4cc(F)ccc34)c2C)c1 [Example 1459]
34 | 48.8 | Cc1nn(Cc2ccc(S(C)(=O)=O)cc2)c(C)c1NC(=O)c1cc(C(N)=O)nc2cc(F)ccc12 [Example 1483]
35 | 1.9 | COc1cccc(Cn2nc(C(F)(F)F)c(NC(=O)c3cc(C(N)=O)nc4cc(F)c(Cl)cc34)c2C)c1 [Example 1446]
